Laboratory results: ChEMBL document CHEMBL1201862, “PubChem BioAssay data set” (2004)
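Step 1: Grow cells in 96-well plates. Step 2: Expose to compound for 48 hours at 5 concentrations. Step 3: Interpolate endpoints linearly; if unreached, use highest concentration. Abbreviation: GI50, concentration required for 50% inhibition of growth.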 Active and inactive are the calls of the source. Cut-off read from the data, not from the text of the source: active = GI50 up to about 1.1 µM and inactive = higher.

Columns and labels:
Assay in all cases: growth of human tumour cells (NCI), 48 h
786-0 = system: 786-0
A498 = system: A498
A549 = system: A549
ACHN = system: ACHN
CAKI-1 = system: CAKI-1
CCRF-CEM = system: CCRF-CEM
COLO 205 = system: COLO 205
DLD-1 = system: DLD-1
DMS-114 = system: DMS-114
EKVX = system: EKVX
HCC 2998 = system: HCC 2998
HCT-116 = system: HCT-116
HCT-15 = system: HCT-15
HL-60 = system: HL-60
HOP-18 = system: HOP-18
HOP-62 = system: HOP-62
HOP-92 = system: HOP-92
HT-29 = system: HT-29
IGROV-1 = system: IGROV-1
K562 = system: K562
KM-20L2 = system: KM-20L2
KM12 = system: KM12
LOX IMVI = system: LOX IMVI
LXFL 529 = system: LXFL 529
M14 = system: M14
M19-MEL = system: M19-MEL
MOLT-4 = system: MOLT-4
Malme-3M = system: Malme-3M
NCI-H226 = system: NCI-H226
NCI-H23 = system: NCI-H23
NCI-H460 = system: NCI-H460
NCI-H522 = system: NCI-H522
OVCAR-3 = system: OVCAR-3
OVCAR-4 = system: OVCAR-4
OVCAR-5 = system: OVCAR-5
OVCAR-8 = system: OVCAR-8
RPMI-8226 = system: RPMI-8226
RXF 393 = system: RXF 393
RXF 631 = system: RXF 631
SF-268 = system: SF-268
SF-295 = system: SF-295
SF-539 = system: SF-539
SK-MEL-28 = system: SK-MEL-28
SK-MEL-5 = system: SK-MEL-5
SK-OV-3 = system: SK-OV-3
SN12C = system: SN12C
SNB-19 = system: SNB-19
SNB-75 = system: SNB-75
SNB-78 = system: SNB-78
SR = system: SR
SW-620 = system: SW-620
TK-10 = system: TK-10
U-251 = system: U-251
UACC-257 = system: UACC-257
UACC-62 = system: UACC-62
UO-31 = system: UO-31
SK-MEL-2 = system: SK-MEL-2

Measured: GI50

Cc1c(C)c2ccc3oc4ccccc4c3c2oc1=O
> 100 µM: HCT-15
inactive: 786-0 > 100 µM | A498 > 100 µM | A549 > 100 µM | ACHN > 100 µM | CAKI-1 > 100 µM | CCRF-CEM > 100 µM | COLO 205 > 100 µM | DLD-1 > 100 µM | DMS-114 86.7 µM | EKVX > 100 µM | HCC 2998 > 100 µM | HCT-116 96.4 µM | HL-60 > 100 µM | HOP-18 > 100 µM | HOP-62 > 100 µM | HOP-92 52.6 µM | HT-29 > 100 µM | IGROV-1 > 100 µM | K562 > 100 µM | KM-20L2 > 100 µM | KM12 > 100 µM | LOX IMVI > 100 µM | LXFL 529 > 100 µM | M14 > 100 µM | M19-MEL > 100 µM | MOLT-4 > 100 µM | Malme-3M > 100 µM | NCI-H226 > 100 µM | NCI-H23 > 100 µM | NCI-H460 > 100 µM | NCI-H522 > 100 µM | OVCAR-3 > 100 µM | OVCAR-4 > 100 µM | OVCAR-5 > 100 µM | OVCAR-8 > 100 µM | RPMI-8226 > 100 µM | RXF 393 > 100 µM | RXF 631 > 100 µM | SF-268 > 100 µM | SF-295 67.3 µM | SF-539 > 100 µM | SK-MEL-28 > 100 µM | SK-MEL-5 > 100 µM | SK-OV-3 > 100 µM | SN12C > 100 µM | SNB-19 > 100 µM | SNB-75 57.8 µM | SNB-78 > 100 µM | SR > 100 µM | SW-620 > 100 µM | TK-10 > 100 µM | U-251 > 100 µM | UACC-257 > 100 µM | UACC-62 > 100 µM | UO-31 > 100 µM

COc1cc2cnc3c4cc(OCc5ccccc5)ccc4ccc3c2cc1OC
70.1 µM: HCT-15
inactive: 786-0 12.1 µM | A549 25.5 µM | ACHN 46.7 µM | CAKI-1 26.7 µM | CCRF-CEM 2.81 µM | COLO 205 18.5 µM | DLD-1 18.4 µM | DMS-114 11.4 µM | EKVX 58.3 µM | HCC 2998 31.8 µM | HCT-116 45.8 µM | HL-60 1.66 µM | HOP-18 18.4 µM | HOP-62 18.9 µM | HOP-92 16.6 µM | HT-29 25.1 µM | IGROV-1 28.1 µM | K562 10.4 µM | KM-20L2 80 µM | KM12 29.8 µM | LOX IMVI 29.6 µM | LXFL 529 18.8 µM | M14 19.8 µM | M19-MEL 27.4 µM | MOLT-4 5.06 µM | Malme-3M 36.3 µM | NCI-H226 25.8 µM | NCI-H23 25.2 µM | NCI-H460 19 µM | NCI-H522 17.3 µM | OVCAR-3 40.6 µM | OVCAR-4 6.92 µM | OVCAR-5 > 100 µM | OVCAR-8 18.2 µM | RPMI-8226 2.96 µM | RXF 393 12 µM | RXF 631 14.1 µM | SF-268 19.4 µM | SF-295 15.6 µM | SF-539 34 µM | SK-MEL-28 38.3 µM | SK-MEL-2 18.8 µM | SK-MEL-5 17.4 µM | SK-OV-3 12.7 µM | SN12C 73.3 µM | SNB-19 34.8 µM | SNB-75 3.94 µM | SNB-78 19.1 µM | SR 4.5 µM | SW-620 54.3 µM | TK-10 16.1 µM | U-251 24.3 µM | UACC-257 26.7 µM | UACC-62 39.5 µM | UO-31 27.2 µM
